Results on 25 molecules are retold here after US8471005B2 (Cephalon, Inc., priority 2008, dated 2013).

One test concerns the target T1, JAK2 (Homo sapiens, UniProt O60674).
T1 construct: host or cells: baculovirus expression system
As to the kind of experiment: Recombinant Human JAK2 Kinase Assay (TRF). The test is classed as biochemical. To be noted: JAK2 kinase inhibition, 0.2 μM ATP; read-out: JAK2 Potency. In a few lines:
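Kinase activity of baculovirus-expressed JAK2 is followed on a surface-immobilised biotinylated peptide, with the reaction run for 20 min at room temperature in buffer containing 0.2 μM ATP and manganese. Phosphorylation is read with Eu-N1 PY100 antibody.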

A further test has as its target T2, ALK (Homo sapiens, UniProt Q9UM73).
T2 construct: host or cells: baculovirus expression system
Nature of the test: ALK Kinase Assay (ELISA/TRF, PLC-γ substrate). The class given is biochemical. To be noted: ALK kinase inhibition, 1 μM ATP; read-out: ALK Potency. In short, it runs like this:
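Wells were coated with 10 μg/mL phospholipase C-γ substrate in TBS, and the reaction was started by adding 30 ng/ml ALK enzyme and run at 37° C for 15 minutes. Phosphorylated product was detected with Eu-N1-labeled PT66 antibody, and IC50 values came from sigmoidal variable-slope fits of percent inhibition against log concentration.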
In general terms: In an ELISA, binding on a coated surface is turned into a signal by an enzyme label.

T2 sequence (Q9UM73 19-1620): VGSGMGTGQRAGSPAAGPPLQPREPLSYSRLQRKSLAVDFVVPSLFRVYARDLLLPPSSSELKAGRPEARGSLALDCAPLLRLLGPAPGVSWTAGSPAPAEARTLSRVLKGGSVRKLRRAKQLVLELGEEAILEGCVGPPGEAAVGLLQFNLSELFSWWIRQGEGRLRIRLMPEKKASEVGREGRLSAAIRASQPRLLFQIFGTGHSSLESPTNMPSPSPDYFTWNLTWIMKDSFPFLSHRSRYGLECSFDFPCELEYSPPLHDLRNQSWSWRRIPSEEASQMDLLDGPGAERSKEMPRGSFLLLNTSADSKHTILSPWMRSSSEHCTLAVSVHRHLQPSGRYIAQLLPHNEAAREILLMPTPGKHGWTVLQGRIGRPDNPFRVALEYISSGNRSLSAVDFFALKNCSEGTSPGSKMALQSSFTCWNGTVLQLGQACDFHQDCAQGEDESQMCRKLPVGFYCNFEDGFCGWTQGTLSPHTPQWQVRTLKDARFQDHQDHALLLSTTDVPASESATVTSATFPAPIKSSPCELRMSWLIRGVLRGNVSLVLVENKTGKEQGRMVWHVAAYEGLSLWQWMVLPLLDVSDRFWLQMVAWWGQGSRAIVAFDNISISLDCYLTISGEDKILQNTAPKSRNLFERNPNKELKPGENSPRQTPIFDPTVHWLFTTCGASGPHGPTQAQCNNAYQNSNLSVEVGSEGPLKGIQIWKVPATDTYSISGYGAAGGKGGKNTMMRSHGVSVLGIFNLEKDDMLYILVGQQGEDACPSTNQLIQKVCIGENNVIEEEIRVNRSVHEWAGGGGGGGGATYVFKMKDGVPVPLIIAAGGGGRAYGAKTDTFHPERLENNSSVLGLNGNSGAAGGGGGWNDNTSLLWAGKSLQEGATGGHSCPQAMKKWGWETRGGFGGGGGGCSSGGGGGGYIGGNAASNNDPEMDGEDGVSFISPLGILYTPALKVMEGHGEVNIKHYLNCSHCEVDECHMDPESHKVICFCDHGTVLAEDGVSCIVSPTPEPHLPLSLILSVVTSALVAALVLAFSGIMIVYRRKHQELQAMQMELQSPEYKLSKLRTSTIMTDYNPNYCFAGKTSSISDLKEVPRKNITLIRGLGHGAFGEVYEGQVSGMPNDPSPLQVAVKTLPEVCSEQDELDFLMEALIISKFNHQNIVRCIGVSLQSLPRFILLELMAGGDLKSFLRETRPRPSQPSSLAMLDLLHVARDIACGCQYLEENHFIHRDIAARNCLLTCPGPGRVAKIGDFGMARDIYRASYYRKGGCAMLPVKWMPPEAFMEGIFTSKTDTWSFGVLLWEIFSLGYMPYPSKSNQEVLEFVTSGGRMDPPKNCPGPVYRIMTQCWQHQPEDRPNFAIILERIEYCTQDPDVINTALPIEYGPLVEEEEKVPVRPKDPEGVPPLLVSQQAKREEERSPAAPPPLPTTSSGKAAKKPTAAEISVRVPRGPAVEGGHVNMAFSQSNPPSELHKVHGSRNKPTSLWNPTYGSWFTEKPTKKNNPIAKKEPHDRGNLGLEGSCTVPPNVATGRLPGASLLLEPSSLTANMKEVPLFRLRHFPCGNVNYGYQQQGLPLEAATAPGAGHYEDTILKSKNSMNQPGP
T1 sequence (O60674 whole entry): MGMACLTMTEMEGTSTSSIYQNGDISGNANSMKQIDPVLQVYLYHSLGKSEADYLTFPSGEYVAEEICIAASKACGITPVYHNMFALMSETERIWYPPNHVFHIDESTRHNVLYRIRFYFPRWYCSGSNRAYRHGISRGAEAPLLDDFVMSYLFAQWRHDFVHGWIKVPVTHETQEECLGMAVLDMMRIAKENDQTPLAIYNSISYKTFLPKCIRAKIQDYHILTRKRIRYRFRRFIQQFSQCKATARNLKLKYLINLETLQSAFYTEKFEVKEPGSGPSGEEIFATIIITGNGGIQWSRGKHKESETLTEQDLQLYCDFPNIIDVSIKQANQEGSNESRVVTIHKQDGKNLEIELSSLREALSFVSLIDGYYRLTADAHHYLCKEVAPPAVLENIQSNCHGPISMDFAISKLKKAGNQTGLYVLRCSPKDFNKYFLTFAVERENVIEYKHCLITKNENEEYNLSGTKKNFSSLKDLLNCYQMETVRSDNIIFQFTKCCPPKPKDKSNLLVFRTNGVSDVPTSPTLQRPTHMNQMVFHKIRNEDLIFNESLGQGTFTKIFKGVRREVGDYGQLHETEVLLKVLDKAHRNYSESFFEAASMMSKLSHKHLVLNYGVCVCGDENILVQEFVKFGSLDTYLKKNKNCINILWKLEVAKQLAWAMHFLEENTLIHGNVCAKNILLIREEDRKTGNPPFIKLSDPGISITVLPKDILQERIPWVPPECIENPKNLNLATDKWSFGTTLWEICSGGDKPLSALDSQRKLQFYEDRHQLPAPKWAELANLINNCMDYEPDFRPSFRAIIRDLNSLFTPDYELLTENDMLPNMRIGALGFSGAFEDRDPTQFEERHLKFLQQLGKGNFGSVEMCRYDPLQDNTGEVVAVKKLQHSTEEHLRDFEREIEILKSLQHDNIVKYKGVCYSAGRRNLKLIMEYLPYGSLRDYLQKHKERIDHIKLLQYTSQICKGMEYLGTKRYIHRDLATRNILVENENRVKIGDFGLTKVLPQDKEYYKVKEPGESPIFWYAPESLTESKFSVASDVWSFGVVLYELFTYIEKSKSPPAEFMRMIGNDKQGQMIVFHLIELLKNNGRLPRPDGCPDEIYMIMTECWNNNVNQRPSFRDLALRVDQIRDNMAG

For the molecule `COc1cc(N2CCC(N3CCN(S(C)(=O)=O)CC3)CC2)ccc1Nc1ncc2ccc(-c3ccccc3OC)n2n1` [Example 535, {4-[4-(4-Methanesulfonyl-piperazin-1-yl)-piperidin-1-yl]-2-methoxy-phenyl}-[7-(2-methoxy-phenyl)-pyrrolo[2,1-f][1,2,4]triazin-2-yl]-amine], the IC50 on JAK2 and at ALK was below 100 nM throughout.
Take `COCc1ccccc1-c1ccc2cnc(Nc3ccc(N4CCC(N5CCN(C)CC5)CC4)cc3OC)nn12` [Example 538, [7-(2-Methoxymethyl-phenyl)-pyrrolo[2,1-f][1,2,4]triazin-2-yl]-{2-methoxy-4-[4-(4-methyl-piperazin-1-yl)-piperidin-1-yl]-phenyl}-amine]: the IC50 on JAK2 and on ALK was below 100 nM throughout.
In the case of `COc1cc(N2CCC(N3CCOCC3)CC2)c(C)cc1Nc1ncc2ccc(-c3ccccc3OC)n2n1` [Example 539], the IC50 on JAK2 and at ALK was below 100 nM each time.
In the case of `COc1cc(N2CCC(N3CCOCC3)CC2)ccc1Nc1ncc2ccc(-c3ccccc3S(C)(=O)=O)n2n1` [Example 540, [7-(2-Methanesulfonyl-phenyl)-pyrrolo[2,1-f][1,2,4]triazin-2-yl]-[2-methoxy-4-(4-morpholin-4-yl-piperidin-1-yl)-phenyl]-amine], the IC50 at JAK2 and at ALK was 1000 to 10000 nM in each case.
`COc1cc(N2CCN(C[C@H](C)O)CC2)ccc1Nc1ncc2ccc(-c3ccccc3S(C)(=O)=O)n2n1` [Example 541, (S)-1-(4-{4-[7-(2-Methanesulfonyl-phenyl)-pyrrolo[2,1-f][1,2,4]triazin-2-ylamino]-3-methoxy-phenyl}-piperazin-1-yl)-propan-2-ol]: the IC50 at JAK2 lay within 1000 to 10000 nM; on ALK, 100 to 1000 nM.
For `COc1cc(N2CCC(N3CCOCC3)CC2)ccc1Nc1ncc2ccc(-c3c(OC)cccc3OC)n2n1` [Example 542, [7-(2,6-Dimethoxy-phenyl)-pyrrolo[2,1-f][1,2,4]triazin-2-yl]-[2-methoxy-4-(4-morpholin-4-yl-piperidin-1-yl)-phenyl]-amine] the same measures were 1000 to 10000 nM and 100 to 1000 nM.
The matching figures for `COc1cc(N2CCN(C[C@H](C)O)CC2)ccc1Nc1ncc2ccc(-c3c(OC)cccc3OC)n2n1` [Example 543, (S)-1-(4-{4-[7-(2,6-Dimethoxy-phenyl)-pyrrolo[2,1-f][1,2,4]triazin-2-ylamino]-3-methoxy-phenyl}-piperazin-1-yl)-propan-2-ol]: 1000 to 10000 nM and below 100 nM.
Consider `COc1cc(N2CCC(N3CCOCC3)CC2)ccc1Nc1ncc2ccc(-c3ccccc3[S+](C)[O-])n2n1` (centres unmarked) [Example 544, [7-(2-Methanesulfinyl-phenyl)-pyrrolo[2,1-f][1,2,4]triazin-2-yl]-[2-methoxy-4-(4-morpholin-4-yl-piperidin-1-yl)-phenyl]-amine], for which the IC50 at JAK2 and at ALK was 100 to 1000 nM in each case.
Take `COc1cc(N2CCN(C[C@H](C)O)CC2)ccc1Nc1ncc2ccc(-c3ccccc3[S+](C)[O-])n2n1` (stereo partly drawn) [Example 545, (S)-1-(4-{4-[7-(2-Methanesulfinyl-phenyl)-pyrrolo[2,1-f][1,2,4]triazin-2-ylamino]-3-methoxy-phenyl}-piperazin-1-yl)-propan-2-ol]: the IC50 at JAK2 and at ALK was 100 to 1000 nM in each case.
Regarding `COc1cc(N2CCC(N3CCOCC3)CC2)ccc1Nc1ncc2ccc(-c3cccc4c3OCCO4)n2n1` [Example 546, [7-(2,3-Dihydro-1,4-benzodioxin-5-yl)-pyrrolo[2,1-f][1,2,4]triazin-2-yl]-[2-methoxy-4-(4-morpholin-4-yl-piperidin-1-yl)-phenyl]-amine], the IC50 at JAK2 and at ALK was below 100 nM in each case.
On to `COc1cc(N2CCN(C[C@H](C)O)CC2)ccc1Nc1ncc2ccc(-c3cccc4c3OCCO4)n2n1` [Example 547, (S)-1-(4-{4-[7-(2,3-Dihydro-1,4-benzodioxin-5-yl)-pyrrolo[2,1-f][1,2,4]triazin-2-ylamino]-3-methoxy-phenyl}-piperazin-1-yl)-propan-2-ol], for which the IC50 at JAK2 and at ALK was below 100 nM each time.
Consider `CN1CCN(c2ccc(Nc3ncc4ccc(-c5cccc6c5OCCO6)n4n3)cc2)CC1` [Example 548, [7-(2,3-Dihydro-1,4-benzodioxin-5-yl)-pyrrolo[2,1-f][1,2,4]triazin-2-yl]-[4-(4-methyl-piperazin-1-yl)-phenyl]-amine], for which the IC50 on JAK2 and on ALK was below 100 nM throughout.
`COc1cc(N2CCC(N3CCOCC3)CC2)ccc1Nc1ncc2ccc(-c3ccccc3CS(C)(=O)=O)n2n1` [Example 549, [7-(2-Methanesulfonylmethyl-phenyl)-pyrrolo[2,1-f][1,2,4]triazin-2-yl]-[2-methoxy-4-(4-morpholin-4-yl-piperidin-1-yl)-phenyl]-amine]: the IC50 at JAK2 was in the range of 1000 to 10000 nM; on ALK, 100 to 1000 nM.
Turning to `COc1cc(C2CCN(C[C@@H](O)CO)CC2)c(F)cc1Nc1ncc2ccc(-c3ccccc3OC)n2n1` [Example 550, (R)-3-(4-{2-Fluoro-5-methoxy-4-[7-(2-methoxy-phenyl)-pyrrolo[2,1-f][1,2,4]triazin-2-ylamino]-phenyl}-piperidin-1-yl)-propane-1,2-diol], the IC50 at JAK2 is 100 to 1000 nM; at ALK, below 100 nM.
For `COc1cc(C2CCN(C[C@@H](O)CO)CC2)c(F)cc1Nc1ncc2ccc(-c3ccccc3N(C)S(C)(=O)=O)n2n1` [Example 551, N-[2-(2-{4-[1-((R)-2,3-Dihydroxy-propyl)-piperidin-4-yl]-5-fluoro-2-methoxy-phenylamino}-pyrrolo[2,1-f][1,2,4]triazin-7-yl)-phenyl]-N-methyl-methanesulfonamide] the same measures were 1000 to 10000 nM and below 100 nM.
On to `CC(C)(C)NS(=O)(=O)c1cccc(-c2ccc3cnc(Nc4ccc(N5CCOCC5)cc4)nn23)c1` [Example 561, N-tert-Butyl-3-[2-(4-morpholin-4-yl-phenylamino)-pyrrolo[2,1-f][1,2,4]triazin-7-yl]-benzenesulfonamide], for which the IC50 on JAK2 is below 100 nM; at ALK, 100 to 1000 nM.
For `CC(C)(C)NS(=O)(=O)c1cccc(-c2ccc3cnc(Nc4ccc(N5CCC(N6CCNC(=O)C6)CC5)cc4)nn23)c1` [Example 562, N-tert-Butyl-3-(2-{4-[4-(3-oxo-piperazin-1-yl)-piperidin-1-yl]-phenylamino}-pyrrolo[2,1-f][1,2,4]triazin-7-yl)-benzenesulfonamide] the same measures were below 100 nM and 100 to 1000 nM.
For `CS(=O)(=O)c1cccc(-c2ccc3cnc(N4CCC(Oc5cccc(N)c5)CC4)nn23)c1` [Example 563, 3-{1-[7-(3-Methanesulfonyl-phenyl)-pyrrolo[2,1-f][1,2,4]triazin-2-yl]-piperdin-4-yloxy}-phenylamine] the same measures were 1000 to 10000 nM and above 10000 nM.
As to `COc1ccccc1-c1ccc2cnc(Nc3ccc4oc(C)nc4c3)nn12` [Example 564, [7-(2-Methoxy-phenyl)-pyrrolo[2,1-f][1,2,4]triazin-2-yl]-(2-methyl-benzoxazol-5-yl)-amine], the IC50 at JAK2 was below 100 nM; at ALK, 100 to 1000 nM.
For `CC(C)(C)NS(=O)(=O)c1cccc(-c2ccc3cnc(Nc4ccc(C5CCC(N6CCOCC6)CC5)cc4)nn23)c1` (centres unmarked) [Example 565, N-tert-Butyl-3-{2-[4-(4-morpholin-4-yl-cyclohexyl)-phenylamino]-pyrrolo[2,1-f][1,2,4]triazin-7-yl}-benzenesulfonamide] the same measures were below 100 nM and 100 to 1000 nM.
For `CC(C)(C)NS(=O)(=O)c1cccc(-c2ccc3cnc(Nc4ccc(C5CCC(N6CCCC6)CC5)cc4)nn23)c1` (centres unmarked) [Example 566, N-tert-Butyl-3-{2-[4-(4-pyrrolidin-1-yl-cyclohexyl)-phenylamino]-pyrrolo[2,1-f][1,2,4]triazin-7-yl}-benzenesulfonamide] the same measures were below 100 nM and 100 to 1000 nM.
On to `CN(C)C1CCC(c2ccc(Nc3ncc4ccc(-c5cccc(S(=O)(=O)NC(C)(C)C)c5)n4n3)cc2)CC1` (centres unmarked) [Example 567, N-tert-Butyl-3-{2-[4-(4-dimethylamino-cyclohexyl)-phenylamino]-pyrrolo[2,1-f][1,2,4]triazin-7-yl}-benzenesulfonamide], for which the IC50 on JAK2 was below 100 nM; on ALK, 100 to 1000 nM.
For `CC(C)(C)NS(=O)(=O)c1cccc(-c2ccc3cnc(Nc4ccc(C5CCC(O)CC5)cc4)nn23)c1` (centres unmarked) [Example 568, N-tert-Butyl-3-{2-[4-(4-hydroxy-cyclohexyl)-phenylamino]-pyrrolo[2,1-f][1,2,4]triazin-7-yl}-benzenesulfonamide], the figures for the IC50 at JAK2 and on ALK were below 100 nM and 100 to 1000 nM, respectively.
Consider `CC(O)c1cccc(Nc2ncc3ccc(-c4cccc(S(=O)(=O)NC(C)(C)C)c4)n3n2)c1` (centres unmarked) [Example 569, N-tert-Butyl-3-{2-[3-(1-hydroxy-ethyl)-phenylamino]-pyrrolo[2,1-f][1,2,4]triazin-7-yl}-benzenesulfonamide], for which the IC50 at JAK2 was below 100 nM; at ALK, 100 to 1000 nM.
For `CC(C)S(=O)(=O)c1cccc(-c2ccc3cnc(Nc4ccc(C5CCN(CC(N)=O)CC5)cc4)nn23)c1` [Example 570, 2-[4-(4-{7-[3-(Propane-2-sulfonyl)-phenyl]-pyrrolo[2,1-f][1,2,4]triazin-2-ylamino}-phenyl)-piperidin-1-yl]-acetamide] the same measures were below 100 nM and 100 to 1000 nM.
